Experimental data as given in US20240293392A1, “INHIBITOR COMPOUNDS” (NeoPhore Limited, priority 2021, published 2024).
Like-named read-outs stand apart in the source and are kept apart here.

Assays:
[1] = molecular target: T1, recombinant N-terminal PMS2 (residues 1-365) (Homo sapiens, UniProt P54278); experiment: Fluorescence Polarisation Assay for PMS2; format: binding; details: 10 nM N-terminal PMS2, 5 nM probe compound
T1 construct: recombinant N-terminal PMS2 (residues 1-365)
T1 sequence (P54278 1-365): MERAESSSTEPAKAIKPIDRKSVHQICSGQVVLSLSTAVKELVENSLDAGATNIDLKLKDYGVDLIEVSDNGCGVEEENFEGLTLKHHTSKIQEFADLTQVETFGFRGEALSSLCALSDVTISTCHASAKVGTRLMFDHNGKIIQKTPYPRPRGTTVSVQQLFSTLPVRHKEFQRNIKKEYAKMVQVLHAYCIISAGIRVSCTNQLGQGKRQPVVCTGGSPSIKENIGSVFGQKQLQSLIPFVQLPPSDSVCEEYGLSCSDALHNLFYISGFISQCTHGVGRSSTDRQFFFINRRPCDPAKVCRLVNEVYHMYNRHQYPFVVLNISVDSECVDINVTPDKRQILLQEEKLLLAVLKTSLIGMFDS
Procedure: Fluorescence Polarisation Assay for PMS2
For single point screening, test compounds were added to wells in columns 1-22 whilst DMSO was added to wells in columns 23 and 24 in order to normalise the plate. For potency determination, serial dilutions of test compounds were added to wells in columns 3-22 and DMSO volume was normalised across the plate.
20 μL assay buffer was added to all wells in columns 1 and 24 (column 24 only for single point screening) using a MultiDrop Combi (ThermoFisher). Plates were centrifuged for 1 minute at 250×g and were incubated at room temperature for 30 minutes prior to the addition of 20 μL of 2× (20 nM) of 5-((5-(4-((2-(2,4-dihydroxy-5-isopropylbenzoyl)isoindolin-5-yl)methyl)piperazin-1-yl)pentyl)carbamoyl)-2-(6-(dimethylamino)-3-(dimethyliminio)-3H-xanthen-9-yl)benzoate (referred to hereinafter as “probe compound”) in assay buffer (prepared from a 100 μM DMSO stock) with a MultiDrop Combi (ThermoFisher). The final concentration of N-terminal PMS2 was 10 nM and the final concentration of probe compound was 5 nM.
Compound plates were centrifuged for 1 minute at 250×g for 1 minute and were incubated at room temperature for 1 hour before being read on a PheraStar FSX (fitted with 384-well aperture spoon and 540 590 590 FP optic module). The gain and focus were adjusted before each plate was read so that the polarisation of a no enzyme control (column 24) was equal to 35 mP. Data were normalised against the no inhibitor controls (column 23) and no enzyme controls (column 24).

[2] = molecular target: T2, recombinant N-terminal MLH1 (residues 15-340) (Homo sapiens, UniProt P40692); experiment: Fluorescence Polarisation Assay for MLH1; format: binding; details: fluorescence polarisation probe displacement; 100 nM N-terminal MLH1, 5 nM probe compound
T2 construct: recombinant N-terminal MLH1 (residues 15-340)
T2 sequence (P40692 15-340): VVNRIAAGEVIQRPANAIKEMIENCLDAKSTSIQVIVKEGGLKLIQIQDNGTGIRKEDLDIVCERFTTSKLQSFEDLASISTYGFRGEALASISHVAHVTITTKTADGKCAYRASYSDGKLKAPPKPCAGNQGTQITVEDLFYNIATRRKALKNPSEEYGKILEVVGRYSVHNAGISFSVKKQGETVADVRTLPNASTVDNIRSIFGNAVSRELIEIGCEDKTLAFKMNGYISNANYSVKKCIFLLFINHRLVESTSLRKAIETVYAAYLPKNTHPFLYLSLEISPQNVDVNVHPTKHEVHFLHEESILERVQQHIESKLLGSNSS
Procedure: Fluorescence Polarisation Assay for MLH1
Test compounds, as 10 mM DMSO stocks, were dispensed into a 384-well Low Flange Black Flat Bottom Polystyrene Non-binding Surface plate (Corning®, item number 3575) using a Labcyte Echo acoustic liquid handler. Test compounds were added to wells in columns 1-22 whilst DMSO was added to wells in columns 23 and 24 in order to normalise the plate. 20 μL of a 2× solution (200 nM) of recombinant N-terminal MLH1 (residues 15-340) in assay buffer (25 mM HEPES, pH 7.5, 250 mM NaCl, 10 mM MgCl2, 0.01% Triton X-100, 5 mM dithiothreitol) was added to all wells in columns 1-23 and 20 μL assay buffer was added to all wells in column 24 using an E1-ClipTip pipette (ThermoFisher). Plates were centrifuged for 1 minute at 250×g and were incubated at room temperature for 30 minutes prior to the addition of 20 μL of 2× (10 nM) 5-((5-(4-((2-(2,4-dihydroxy-5-isopropylbenzoyl)isoindolin-5-yl)methyl)piperazin-1-yl)pentyl)carbamoyl)-2-(6-(dimethylamino)-3-(dimethyliminio)-3H-xanthen-9-yl)benzoate in assay buffer (prepared from a 1 mM DMSO stock) with an E1-ClipTip pipette (ThermoFisher). The final concentration of N-terminal MLH1 was 100 nM and the final concentration of the probe compound was 5 nM. Compound plates were centrifuged for 1 minute at 250×g for 1 minute and immediately read on a PheraStar FSX (fitted with 384-well aperture spoon and 590 675 675 FP optic module). The gain and focus were adjusted before each plate was read so that the polarisation of a no enzyme control (column 24) was equal to 35 mP. Data were normalised against the no inhibitor controls (column 23) and no enzyme controls (column 24).

[3] = fluorescence polarisation probe displacement, read-out: PMS2 IC50

Compound | IC50 [1, 3] | IC50 [2] | IC50 ([1]; PMS2 IC50, fluorescence polarisation probe displacement)
CN(C)Cc1ccc2c(c1)CN(C(=O)c1c(O)cc(O)cc1OCc1ccccc1)C2 [Example 11, (2-(Benzyloxy)-4,6-dihydroxyphenyl)(5-((dimethylamino)methyl)isoindolin-2-yl)methanone] | 1000 to 10000 nM | 1000 to 10000 nM | 
O=C(c1c(O)cc(O)cc1OCc1ccccc1)N1Cc2ccc(CN3CCOCC3)cc2C1 [Example 12, (2-(Benzyloxy)-4,6-dihydroxyphenyl)(5-(morpholinomethyl)isoindolin-2-yl)methanone] | < 1000 nM | < 1000 nM | 
O=C(c1c(O)cc(O)cc1OCc1ccccc1)N1Cc2ccccc2C1CO (centres unmarked) [Example 13, (2-(Benzyloxy)-4,6-dihydroxyphenyl)(1-(hydroxymethyl)isoindolin-2-yl)methanone] | 1000 to 10000 nM | < 1000 nM | 
O=C(c1c(O)cc(O)cc1OCc1ccccc1)N1Cc2cccc(NC3CCCOC3)c2C1 (centres unmarked) [Example 14, (2-(Benzyloxy)-4,6-dihydroxyphenyl)(4-((tetrahydro-2H-pyran-3-yl)amino)isoindolin-2-yl)methanone] | 1000 to 10000 nM | < 1000 nM | 
O=C(c1c(O)cc(O)cc1OCc1ccccc1)N1Cc2cccc(NC3CCOCC3)c2C1 [Example 15, (2-(Benzyloxy)-4,6-dihydroxyphenyl)(4-((tetrahydro-2H-pyran-4-yl)amino)isoindolin-2-yl)methanone] | 1000 to 10000 nM | < 1000 nM | 
COc1cc(O)cc(O)c1C(=O)N1Cc2cccc(NC3CCOC3)c2C1 (centres unmarked) [Example 16, (2,4-Dihydroxy-6-methoxyphenyl)(4-((tetrahydrofuran-3-yl)amino)isoindolin-2-yl)methanone] | > 10000 nM | 1000 to 10000 nM | 
CCOc1cc(O)cc(O)c1C(=O)N1Cc2cccc(NC3CCOC3)c2C1 (centres unmarked) [Example 17, (2-Ethoxy-4,6-dihydroxyphenyl)(4-((tetrahydrofuran-3-yl)amino)isoindolin-2-yl)methanone] |  | < 1000 nM | > 10000 nM
CN1CC(Nc2cccc3c2CN(C(=O)c2c(O)cc(O)cc2OCc2ccccc2)C3)CC1=O (centres unmarked) [Example 18, 4-((2-(2-(Benzyloxy)-4,6-dihydroxybenzoyl)isoindolin-4-yl)amino)-1-methylpyrrolidin-2-one] | 1000 to 10000 nM | < 1000 nM | 
O=C(c1c(O)cc(O)cc1OCc1ccccc1)N1Cc2cccc(Nc3cncnc3)c2C1 [Example 19, (2-(Benzyloxy)-4,6-dihydroxyphenyl)(4-(pyrimidin-5-ylamino)isoindolin-2-yl)methanone] | < 1000 nM | < 1000 nM | 
O=C(c1c(O)cc(O)cc1OCc1ccccc1)N1Cc2cccc(NCc3cocn3)c2C1 [Example 20, (2-(Benzyloxy)-4,6-dihydroxyphenyl)(4-((oxazol-4-ylmethyl)amino)isoindolin-2-yl)methanone] | 1000 to 10000 nM | < 1000 nM | 
Cn1cc(Nc2cccc3c2CN(C(=O)c2c(O)cc(O)cc2OCc2ccccc2)C3)cn1 [Example 21, (2-(Benzyloxy)-4,6-dihydroxyphenyl)(4-((1-methyl-1H-pyrazol-4-yl)amino)isoindolin-2-yl)methanone] | 1000 to 10000 nM | 1000 to 10000 nM | 
O=C(c1c(O)cc(O)cc1OCc1ccccc1)N1Cc2cccc(N[C@H]3CCOC3)c2C1 [Example 22, (S)-(2-(Benzyloxy)-4,6-dihydroxyphenyl)(4-((tetrahydrofuran-3-yl)amino)isoindolin-2-yl)methanone] | < 1000 nM | < 1000 nM | 
O=C(c1c(O)cc(O)cc1OCc1ccccc1)N1Cc2cccc(N[C@@H]3CCOC3)c2C1 [Example 23, (R)-(2-(Benzyloxy)-4,6-dihydroxyphenyl)(4-((tetrahydrofuran-3-yl)amino)isoindolin-2-yl)methanone] | 1000 to 10000 nM | < 1000 nM | 
Cc1c[nH]c(=O)cc1Nc1cccc2c1CN(C(=O)c1c(O)cc(O)cc1OCc1ccccc1)C2 [Example 24, 4-((2-(2-(benzyloxy)-4,6-dihydroxybenzoyl)isoindolin-4-yl)amino)-5-methylpyridin-2(1H)-one] | 1000 to 10000 nM | 1000 to 10000 nM | 
O=C(c1c(O)cc(O)cc1OCC1CC1)N1Cc2cccc(NC3CCOC3)c2C1 (centres unmarked) [Example 25, (2-(Cyclopropylmethoxy)-4,6-dihydroxyphenyl)(4-((tetrahydrofuran-3-yl)amino)isoindolin-2-yl)methanone] | 1000 to 10000 nM | < 1000 nM | 
O=C(c1c(O)cc(O)cc1OCC1CCCCC1)N1Cc2cccc(NC3CCOC3)c2C1 (centres unmarked) [Example 26, (2-(cyclohexylmethoxy)-4,6-dihydroxyphenyl)(4-((tetrahydrofuran-3-yl)amino)isoindolin-2-yl)methanone] | 1000 to 10000 nM | 1000 to 10000 nM | 
O=C(c1c(O)cc(O)cc1OCc1ccccc1)N1CCc2c(cccc2NC2CCOC2)C1 (centres unmarked) [Example 27, (2-(Benzyloxy)-4,6-dihydroxyphenyl)(5-((tetrahydrofuran-3-yl)amino)-3,4-dihydroisoquinolin-2(1H)-yl)methanone] | 1000 to 10000 nM | 1000 to 10000 nM | 
O=C(c1c(O)cc(O)cc1OCC1CCCCC1)N1CCc2cccc(NC3CCOC3)c2C1 (centres unmarked) [Example 28, (2-(Cyclohexylmethoxy)-4,6-dihydroxyphenyl)(8-((tetrahydrofuran-3-yl)amino)-3,4-dihydroisoquinolin-2(1H)-yl)methanone] | 1000 to 10000 nM | 1000 to 10000 nM | 
CNc1cccc2c1CN(C(=O)c1c(O)cc(O)cc1OCc1ccccc1)C2 [Example 29, (2-(Benzyloxy)-4,6-dihydroxyphenyl)(4-(methylamino)isoindolin-2-yl)methanone] | 1000 to 10000 nM | 1000 to 10000 nM | 
O=C(c1c(O)cc(O)cc1OCc1ccccc1)N1Cc2cccc(NC3COCC(F)(F)C3)c2C1 (centres unmarked) [Example 32, (2-(Benzyloxy)-4,6-dihydroxyphenyl)(4-((5,5-difluorotetrahydro-2H-pyran-3-yl)amino)isoindolin-2-yl)methanone] | 1000 to 10000 nM | 1000 to 10000 nM | 
O=C(c1c(O)cc(O)cc1OCc1ccccc1)N1Cc2cccc(NCC3CCCO3)c2C1 (centres unmarked) [Example 33, (2-(Benzyloxy)-4,6-dihydroxyphenyl)(4-(((tetrahydrofuran-2-yl)methyl)amino)isoindolin-2-yl)methanone] | 1000 to 10000 nM | < 1000 nM | 
O=C(c1c(O)cc(O)cc1OCc1ccccc1)N1Cc2cccc(Nc3cn[nH]c3)c2C1 [Example 34, (4-((1H-Pyrazol-4-yl)amino)isoindolin-2-yl)(2-(benzyloxy)-4,6-dihydroxyphenyl)methanone] | 1000 to 10000 nM | < 1000 nM | 
